“Also recorded” adds a separate entry of the source.
Tests used:
[1] = Tendon rejuvenation: elasticity in a materials testing device before and after ex vivo exposure; design: species or system hen; settings: FIG. 2
Method: The distensibility (i.e, elasticity, rigidity, shear, tensile strength, compression, etc.) of hair, nails, tendons, etc. may be determined using widely available commercial devices, such as manufactured by Instron. Alternatively, other test methods known to a practitioner of the art may be employed. The elasticity of the Achilles tendon of a one year old hen was determined in a materials testing device before and after ex vivo exposure to 3-(2-phenyl-2-oxoethyl)-4,5-dimethylthiazolium chloride (1 mM) in a bath for 15 minutes.

[2] = Hair deformability: stress vs strain of bending individual hairs before and after treatment; settings: FIG. 1
From the text: Methodology for Determination of Stress vs Strain Relationship (Stiffness) The distensibility (i.e, elasticity, rigidity, shear, tensile strength, compression, etc.) of hair, nails, tendons, etc. may be determined using widely available commercial devices, such as manufactured by Instron. Alternatively, other test methods known to a practitioner of the art may be employed. The test assay for determining whether hair has been “rejuvenated” for the present invention is the following. Individual scalp hairs were cemented into the ends of glass capillary tubes such that several centimeters of the shaft protruded from the end. This hair was then trimmed to extend 18 mm from the end of the tube. The unit was then inserted into a micropipette positioner for study. Evaluation consisted of bending the hair by applying a specified force and displacement. Thus, this determination of stress vs strain of bending assessed elasticity, compressibility, and shear of each hair shaft. Each hair served as its own control, with baseline and post-treatment properties assessed and directly compared. A 1 mm thick plate with a 0.5 mm diameter hole drilled through was attached to the surface of an isometric strain gauge. To perform each measurement, the capillary tube was placed over the fenestrated plate and the hair end inserted into the hole in the plate without touching the strain gauge. The hair was then straightened, if necessary, such that its axis formed a 10 degree angle with respect to vertical. Once positioned, the hair was then lowered onto the surface of the strain gauge. The force required to bend each hair a specified distance was determined over a wide range of displacements. From the stress vs strain relationships thus derived, the work to bend each hair under different treatment regimens can be directly compared. For purposes of the present invention, the term “rejuvenated” hair means an improvement of at least 20% in the measured value of the treated hair, toward the values seen in young, undamaged hair (i.e. healthy). […] The stress versus strain relationship was determined as a baseline. […]

[3] = Tissue diffusion coefficient rejuvenation of ex vivo donor lungs, tested in the recipient patient after transplantation; settings: ex vivo organ flushed once with cooled preservation solution containing 0.01 to 1.0 mM; testing in recipient patient
Method: The following is an illustration of a methodology that can be used to rejuvenate ex vivo and prior to transplantation to a recipient patient the lungs removed from a donor cadaver aged 21 years or more. […] Individuals' deformability and diffusion characteristics can be characterized by using the standard methodology of determination of the lung diffusing capacity for carbon monoxide (e.g., Chang et al., Chest (1992) 102:139-42). The diffusing capacity is measured in the supine patient using a single breath of carbon monoxide (0.3%) held for ten seconds using a CPI 5000 IV (Gould Instruments, Houston, Tex.), corrected for alveolar volume. A young subject (20 years old) will have approximately a 40% higher diffusion coefficient for carbon monoxide compared to older subjects (60 yrs). The ex vivo organ is flushed once with a cooled preservation solution containing 3-(2-phenyl-2-oxoethyl)-4,5-dimethylthiazolium chloride at a concentration of 0.01 to 1.0 mM.

Cc1sc[n+](CC(=O)c2ccccc2)c1C.[Cl-] [3-(2-phenyl-2-oxoethyl)-4,5-dimethylthiazolium chloride]
distensibility of tendon ([1]; 1 mM bath for 15 minutes ex vivo, post-treatment): improved; also recorded: significantly increased | strain of treated tendon as percent of the strain of the untreated tendon ([1]; 1 mM bath for 15 minutes ex vivo, stress greater than 0.04): about 50% | tensile strength of tendon ([1]; after treatment): improved | distensibility of hair ([2]; 1 mM, 15 minutes, after treatment vs baseline): increased distensibility | stiffness of hair ([2]; after treatment): decreases the stiffness | reduction of resulting strain versus before treatment ([2]; hair immersed in 1 mM solution for 15 minutes, stress greater than 0.08): about 50% | deformability of transplanted lungs [3]: improved | diffusional capacity of transplanted lungs [3]: improved

Source: patent US7384625B2, “Method and composition for rejuvenating hair, nails, tissues, cells and organs by ex-vivo or immersive treatment” (Farington Pharmaceuticals, LLC, priority 2001, dated 2008)
